According to ChEMBL document CHEMBL2331359, “Ceramicines from Chisocheton ceramicus as lipid-droplets accumulation inhibitors” (Bioorg Med Chem Lett, 2013):

Legend:
[1] = Selectivity index, ratio of CC50 for mouse MC3T3-G2/PA6 cells to IC50 for inhibition of lipid droplet accumulation in mouse MC3T3-G2/PA6 cells; type: functional
[2] = Antiadipogenic activity in mouse MC3T3-G2/PA6 cells assessed as inhibition of lipid droplet accumulation after 6 days; type: functional, cell-based; conditions: MC3T3-G2/PA6, 144 h
[3] = Cytotoxicity against mouse MC3T3-G2/PA6 cells assessed as cell viability by MTT assay; type: cell-based

IC50 [2] [µM]	SMILES	Ratio CC50/IC50 [1]	CC50 [3] [µM]
7.7	CCO[C@@H]1[C@@H]2OC[C@]3(C)C=CC(=O)[C@](C)([C@H]4CC[C@]5(C)C(=CC[C@H]5c5ccoc5)[C@@]41C)[C@@H]23	2.7	20.6
8.5	COCO[C@@H]1[C@@H]2OC[C@]3(C)C=CC(=O)[C@](C)([C@H]4CC[C@]5(C)C(=CC[C@H]5c5ccoc5)[C@@]41C)[C@@H]23	2.3	19.7
8.8	CC(=O)O[C@@H]1[C@@H]2OC[C@]3(C)C=CC(=O)[C@](C)([C@H]4CC[C@]5(C)C(=CC[C@H]5c5ccoc5)[C@@]41C)[C@@H]23	3	26.2
7.3	C[C@]12C3=CC[C@@H](c4ccoc4)[C@]3(C)CC[C@@H]1[C@@]1(C)C(=O)C=C[C@@]3(C)CO[C@@H]([C@H]2OC(=O)C(F)(F)F)[C@H]13	1.9	13.7
> 50	C[C@]12C3=CC[C@@H](c4ccoc4)[C@]3(C)CC[C@@H]1[C@@]1(C)C(=O)C=C[C@@]3(C)CO[C@@H]([C@H]2OC(=O)c2ccccc2)[C@H]13		> 50
18.7	C[C@]12C3=CC[C@@H](c4ccoc4)[C@]3(C)CC[C@@H]1[C@@]1(C)C(=O)C=C[C@@]3(C)CO[C@@H]([C@H]2OC(=O)c2ccncc2)[C@H]13	0.9	17.2
> 50	C[C@]12CCC(=O)[C@]3(C)[C@H]4CC[C@]5(C)C(=CCC5C5CCOC5)[C@]4(C)[C@H](O)[C@H](OC1)[C@@H]23 (stereo partly specified)		> 50
29.5	C[C@@]12C(=O)C=C[C@@]3(C)COC(=C[C@@]4(C)C5=CC[C@@H](c6ccoc6)[C@]5(C)CC[C@H]14)[C@H]23	>1.7	> 50
20.8	C[C@@]12CCC(O)[C@@]3(C)[C@H]1[C@@H](OC2)[C@@H](O)[C@@]1(C)C2=CC[C@@H](c4ccoc4)[C@]2(C)CC[C@@H]13 (stereo partly specified)	>2.4	> 50
44.1	CC(=O)O[C@H]1[C@@H](O)[C@@]2(C)C3=CC[C@@H](c4ccoc4)[C@]3(C)CC[C@@H]2[C@@]2(C)C(=O)[C@H]3O[C@H]3[C@]3(CO3)[C@H]12 [CERAMICINE E]	1.1	48.4
22.4	C[C@@]1(C=O)C=CC(=O)[C@]2(C)[C@H]3CC[C@]4(C)C(=CC[C@H]4c4ccoc4)[C@]3(C)[C@H](O)[C@H](O)[C@@H]12 [CERAMICINE F]	1.1	25
38.4	COC(=O)[C@]1(C)C=CC(=O)[C@]2(C)[C@H]3CC[C@]4(C)C(=CC[C@H]4c4ccoc4)[C@]3(C)[C@H](O)[C@H](O)[C@H]21 [CERAMICINE G]	1.9	72.9
> 50	C/C=C(\C)C(=O)O[C@H]1C[C@H]2[C@](C)(C3=CC[C@@H](c4ccoc4)[C@@]31C)[C@H](O)[C@@H]1OC[C@]3(C)C=CC(=O)[C@@]2(C)[C@@H]13 [CERAMICINE H]		> 50
41	CC(=O)O[C@H]1C[C@H]2[C@](C)(C3=CC[C@@H](c4ccoc4)[C@@]31C)[C@H](O)[C@@H]1OC[C@]3(C)C=CC(=O)[C@@]2(C)[C@@H]13 [CERAMICINE I]	>1.2	> 50
> 50	C[C@@]12CC[C@@H]3[C@@]4(C)C(=O)C=C[C@@]5(C)CO[C@@H]([C@@H](O)[C@@]3(C)[C@@H]1C(=O)C[C@H]2c1ccoc1)[C@H]45 [CERAMICINE J]		> 50
> 50	CC(=O)O[C@H]1C=CC(=O)[C@@]2(C)[C@H]1[C@@H](O)[C@@H](O)[C@@]1(C)C3=CC[C@@H](c4ccoc4)[C@]3(C)CC[C@H]21 [CERAMICINE K]		> 50
> 50	C[C@]12C3=CC[C@@H](c4ccoc4)[C@]3(C)CC[C@@H]1[C@@]1(C)C(=O)C=C[C@@](C)(O)[C@@H]1[C@@H](O)[C@H]2O [CERAMICINE L]		> 50
6.2	CC(=O)O[C@@H]1[C@H]2[C@@H](O)C=CC(=O)[C@]2(C)[C@H]2CC[C@]3(C)C(=CC[C@H]3c3ccoc3)[C@]2(C)[C@@H]1O [CERAMICINES A]	5	30.7
19.1	C=C(C)C(=O)O[C@H]1C[C@H]2[C@](C)(C3=CC[C@@H](c4ccoc4)[C@@]31C)[C@H](O)[C@@H]1OC[C@]3(C)C=CC(=O)[C@@]2(C)[C@@H]13 [CERAMICINES C]	1.2	21.9
> 50	C[C@]12C3=CC[C@@H](C4=CCOC4=O)[C@]3(C)CC[C@@H]1[C@@]1(C)C(=O)C=C[C@@]3(C)CO[C@@H]([C@H]2O)[C@H]13 [CERAMICINES D]		> 50

SMILES	IC50 [2] [µM]	Ratio CC50/IC50 [1]	CC50 [3] [µM]
C[C@]12C3=CC[C@@H](c4ccoc4)[C@]3(C)CC[C@@H]1[C@@]1(C)C(=O)C=C[C@@]3(C)CO[C@@H]([C@H]2O)[C@H]13 [CERAMICINES B]	1.8	8.8	15.9
